{"source": "patent US20200384018A1", "about": "“OZONE NANOBUBBLE ANTICANCER AGENT” (OPT CREATION INC., priority 2017, published 2020)", "note": "Where a name gives a salt, the structure may show the parent alone."}
{"system": "MIAPaCa-2 cells", "experiment": "Combination of NAnO3 and existing anticancer agents, sequential administration (neutral red)", "assay_type": "cell-based, human", "details": "exposed only to the anticancer agent (doxorubicin 0.1, gemcitabine 0.04, cisplatin 4 μg/mL); DMEM medium = 100%", "description": "A cell suspension was prepared such that MIAPaCa-2 viable cell count became 5×10^4 cells/mL. The cell suspension (1 mL) was seeded in each of wells of a 12 well plate, allowed to stand in a CO2 incubator set at 37° C. and 5% CO2 and cultured for 18 hours or more to allow the cells to adhere to the bottom of the plate. After the completion of culture, the medium was removed from the plate and the following test-substance solutions were added.\nTest-substance solutions 1 to 6 were prepared in the same manner as in Section 2.1 and used. Test-substance solutions 7 to 9 were prepared by adding each anticancer agent/DMEM medium (0.9 mL) and, in several minutes later, adding 0.1 mL of NAnO3. The same operation was also repeated after 48 hours and 72 hours.\nAfter the completion of culture, the medium was removed and washing with PBS (−) was made. To each of the wells of the plate, a 0.005% neutral red (NR) (Kanto Chemical Co., Inc., Lot No. 806W2294) D-MEM solution (1 mL) was added and the plate was allowed to stand in a CO2 incubator for 3 hours. After 3 hours, the NR solution was removed and washing was made with PBS (−). To each plate, 1 mL of a fixation/extraction liquid (ethanol 50% (v/v), glacial acetic acid 1% (v/v) aqueous solution) was added and shaking was made for 10 minutes. Thereafter, the value of the absorbance was measured by using a microplate reader (EL×800, BIO-TEC INSTRUMENTS, INC., wavelength: 540 nm).\nProvided that the absorbance of DMEM medium (test-substance solution 1) was regarded as 100%, the cell survival rate (%) of each test group was obtained (FIG. 4).", "units": {"cell survival rate": "%"}}
{"smiles": "N.N.[Cl][Pt][Cl]", "note": "[cisplatin]", "cell survival rate": 47.5}
{"smiles": "COc1cccc2c1C(=O)c1c(O)c3c(c(O)c1C2=O)C[C@@](O)(C(=O)CO)C[C@@H]3O[C@H]1C[C@H](N)[C@H](O)[C@H](C)O1", "note": "[doxorubicin, doxorubicin hydrochloride]", "cell survival rate": 51.1}
{"smiles": "Nc1ccn([C@@H]2O[C@H](CO)[C@@H](O)C2(F)F)c(=O)n1", "note": "[gemcitabine, gemcitabine hydrochloride]", "cell survival rate": 44.8}
